The results in this text go back to US7528148B2, “Pyrazolo[3,4-B]pyridine compounds, and their use as phosphodiesterase inhibitors” (Glaxo Group Limited, priority 2002, dated 2009).

Data set [1] deals with pica feeding response of rats. The data set can be described thus: In Vivo Assay 2: rat pica model of emesis. The settings on record: oral dosing, upper end given as greater than about 50 mg/kg. The source says: In Vivo Assay 2. Rat Pica Model of Emesis
However, a side effect of some PDE4 inhibitors in many species is emesis. Because many rat models of inflammation are well characterized, they have been used in procedures (see e.g. In Vivo Assay 1 above) to show beneficial anti-inflammatory effects of PDE 4 inhibitors. However rats have no emetic response (they have no vomit reflex), so that the relationship between beneficial anti-inflammatory effects of PDE 4 inhibitors and emesis is difficult to study directly in rats.
Pica feeding is a behavioural response to illness in rats wherein rats eat non-nutritive substances such as earth or in particular clay (e.g. kaolin) which may help to absorb toxins. Pica feeding can be induced by motion and chemicals (especially chemicals which are emetic in humans), and can be inhibited pharmacologically with drugs that inhibit emesis in humans. The Rat Pica Model, In Vivo Assay 2, can determine the level of pica response of rats to PDE 4 inhibition at pharmacologically relevant doses in parallel to in vivo anti-inflammatory Assays in (a separate set of) rats (e.g. In Vivo Assay 1 above). Anti-inflammatory and pica assays in the same species together can provide data on the “therapeutic index” (TI) in the rat of the compounds/salts of the invention. The Rat TI can for example be calculated as the ratio of a) the potentially-emetic Pica Response ED50 dose from Assay 2 to b) the rat anti-inflammatory ED50 dose (e.g. measured by rat neutrophilia-inhibition in eg In Vivo Assay 1), with larger TI ratios possibly indicating lower emesis at many anti-inflammatory doses. This might allow a choice of a non-emetic or minimal-emetic pharmaceutical dose of the compounds or salts of the invention which has an anti-inflammatory effect. It is recognised however that achieving a low-emetic PDE4 inhibitory compound is not essential to the invention.
Procedure: On the first day of the experiment, the rats are housed individually in cages without bedding or “enrichment”. The rats are kept off of the cage floor by a wire screen. Pre-weighed food cups containing standard rat chow and clay pellets are placed in the cage. The clay pellets, obtainable from Languna Clay Co, City of Industry, Calif., USA, are the same size and shape as the food pellets. The rats are acclimated to the clay for 72 hours, during which time the cups and food and clay debris from the cage are weighed daily on an electronic balance capable of measuring to the nearest 0.1 grams. By the end of the 72 hour acclimation period the rats generally show no interest in the clay pellets.
At the end of 72 hours the rats are placed in clean cages and the food cups weighed. Rats that are still consuming clay regularly are removed from the study. […] The food and clay cups and cage debris are weighed the following day and the total clay and food consumed that night by each individual animal is calculated.
A dose response is calculated by first converting the data into quantal response, where animals are either positive or negative for the pica response. A rat is “pica positive” if it consumes greater than or equal to 0.3 grams of clay […] using logistic regression performed by the Statistica software statistical package. A Pica Response ED50 value in mg per kg of body weight can then be calculated. […]

For data set [2], the system named is LPS-induced pulmonary neutrophilia in rats. The data set can be described thus: In Vivo Assay 1: LPS-induced pulmonary neutrophilia in rats, orally administered PDE4 inhibitors. The settings on record: po, rat, LPS aerosol 30 min after dosing, BAL 4 hours post LPS, read-out: neutrophilia-inhibition ED50. The source says:
In Vivo Assay 1. LPS-induced Pulmonary Neutrophilia in Rats: Effect of Orally Administered PDE4 Inhibitors
The purpose of this neutrophilia model is to study the potentially anti-inflammatory effects in vivo of orally administered PDE4 inhibitors on neutrophilia induced by inhalation of aerosolized lipopolysaccharide (LPS), modelling the neutrophil inflammatory component(s) of COPD. See the literature section below for scientific background.
Male Lewis rats (Charles River, Raleigh, N.C., USA) weighing approximately 300-400 grams are pretreated with either (a) test compound suspended in 0.5% methylcellulose (obtainable from Sigma-Aldrich, St Louis, Mo., USA) in water or (b) vehicle only, delivered orally in a dose volume of 10 ml/kg. Generally, dose response curves are generated using the following doses of PDE4 inhibitors: 10.0, 2.0, 0.4, 0.08 and 0.016 mg/kg. Thirty minutes following pretreatment, the rats are exposed to aerosolized LPS (Serotype E. Coli 026:B6 prepared by trichloroacetic acid extraction, obtainable from Sigma-Aldrich, St Louis, Mo., USA), generated from a nebulizer containing a 100 μg/ml LPS solution. Rats are exposed to the LPS aerosol at a rate of 4 L/min for 20 minutes. LPS exposure is carried out in a closed chamber with internal dimensions of 45 cm length×24 cm width×20 cm height. The nebulizer and exposure chamber are contained in a certified fume hood. At 4 hours-post LPS exposure the rats are euthanized by overdose with pentobarbital at 90 mg/kg, administered intraperitoneally. Bronchoalveolar lavage (BAL) is performed through a 14 gauge blunt needle into the exposed trachea. Five, 5 ml washes are performed to collect a total of 25 ml of BAL fluid. Total cell counts and leukocyte differentials are performed on BAL fluid in order to calculate neutrophil influx into the lung. Percent neutrophil inhibition at each dose (cf. vehicle) is calculated and a variable slope, sigmoidal dose-response curve is generated, usually using Prism Graph-Pad. The dose-response curve is used to calculate an ED50 value (in mg per kg of body weight) for inhibition by the PDE4 inhibitor of the LPS-induced neutrophilia
Alternative method and results: In an alternative embodiment of the procedure, a single oral dose of 10 mg/kg or 1 mg/kg of the PDE4 inhibitor (or vehicle) is administered to the rats, and percent neutrophil inhibition is calculated and reported for that specific dose.

Take `CCn1ncc2c(NC3CCOCC3)c(-c3nnc(C)o3)cnc21` [Example 14, 1-Ethyl-5-(5-methyl-1,3,4-oxadiazol-2-yl)-N-(tetrahydro-2H-pyran-4-yl)-1H-pyrazolo[3,4-b]pyridin-4-amine]: the figures for the ED50 in data set [1] and in data set [2] were 2 to 50 mg/kg and 0.03 to 1 mg/kg, respectively.

On to `CCn1ncc2c(NC3CCOCC3)c(-c3nnc(C(C)(C)C)o3)cnc21` [Example 17, 5-(S-Tert-butyl-1,3,4-oxadiazol-2-yl)-1-ethyl-N-(tetrahydro-2H-pyran-4-yl)-1H-pyrazolo[3,4-b]pyridin-4-amine], for which the ED50 in data set [1] is 2 to 50 mg/kg; in data set [2] it was 0.03 to 1 mg/kg.

On to `CCn1ncc2c(NC3CCOCC3)c(-c3nnc(CS(C)(=O)=O)o3)cnc21` [Example 23, 1-Ethyl-5-{5-[(methylsulfonyl)methyl]-1,3,4-oxadiazol-2-yl}-N-(tetrahydro-2H-pyran-4-yl)-1H-pyrazolo[3,4-b]pyridin-4-amine], for which the ED50 in data set [1] lay in the range of 2 to 50 mg/kg; in data set [2], 0.03 to 1 mg/kg.

For `CCn1ncc2c(NC3CCOCC3)c(-c3nnc(CN4CCN(C)CC4)o3)cnc21` [Example 35, 1-Ethyl-5-{5-[(4-methylpiperazin-1-yl)methyl]-1,3,4-oxadiazol-2-yl}-N-(tetrahydro-2H-pyran-4-yl)-1H-pyrazolo[3,4-b]pyridin-4-amine], the figures for the ED50 in data set [1] and in data set [2] were 2 to 50 mg/kg and 0.03 to 1 mg/kg, respectively.

Take `CCn1ncc2c(NC3CCOCC3)c(-c3nnc(C4CCOCC4)o3)cnc21` [Example 38, 1-Ethyl-N-(tetrahydro-2H-pyran-4-yl)-5-[5-(tetrahydro-2H-pyran-4-yl)-1,3,4-oxadiazol-2-yl]-1H-pyrazolo[3,4-b]pyridin-4-amine]: the figures for the ED50 in data set [1] and in data set [2] were 2 to 50 mg/kg and 0.03 to 1 mg/kg, respectively.
